From ChEMBL document CHEMBL1201862, “PubChem BioAssay data set” (2004)
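Step 1: Grow cells in 96-well plates. Step 2: Expose to compound for 48 hours at 5 concentrations. Step 3: Interpolate endpoints linearly; if unreached, use highest concentration. The concentration for 50% growth inhibition is given as GI50.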 Active and inactive are the calls of the source. No stated cut-off is given here; in the data, active = GI50 up to about 1.1 µM and inactive = higher.

Assays:
Assay in all cases: NCI anticancer screen, dose series, 48 h
MCF7 = test system: MCF7
PC-3 = test system: PC-3
UACC-62 = test system: UACC-62
MDA-MB-231 = test system: MDA-MB-231
ACHN = test system: ACHN
OVCAR-4 = test system: OVCAR-4
SN12C = test system: SN12C
TK-10 = test system: TK-10
MDA-N = test system: MDA-N
SK-MEL-28 = test system: SK-MEL-28
LOX IMVI = test system: LOX IMVI
NCI-H226 = test system: NCI-H226
SK-OV-3 = test system: SK-OV-3
HT-29 = test system: HT-29
IGROV-1 = test system: IGROV-1
U-251 = test system: U-251
Hs-578T = test system: Hs-578T
MDA-MB-435 = test system: MDA-MB-435
HOP-62 = test system: HOP-62
RXF 393 = test system: RXF 393

| SMILES | GI50 (MCF7) | GI50 (PC-3) | GI50 (UACC-62) | GI50 (MDA-MB-231) | GI50 (ACHN) | GI50 (OVCAR-4) | GI50 (SN12C) | GI50 (TK-10) | GI50 (MDA-N) | GI50 (SK-MEL-28) | GI50 (LOX IMVI) | GI50 (NCI-H226) | GI50 (SK-OV-3) | GI50 (HT-29) | GI50 (IGROV-1) | GI50 (U-251) | GI50 (Hs-578T) | GI50 (MDA-MB-435) | GI50 (HOP-62) | GI50 (RXF 393) |
| --- | --- | --- | --- | --- | --- | --- | --- | --- | --- | --- | --- | --- | --- | --- | --- | --- | --- | --- | --- | --- |
| O=c1cccc(C2CC(CO)C3CCCCN3C2)[nH]1 (stereo not drawn) | > 100 µM (inactive) | > 100 µM (inactive) | > 100 µM (inactive) | > 100 µM (inactive) | > 100 µM (inactive) | > 100 µM (inactive) | > 100 µM (inactive) | > 100 µM (inactive) | > 100 µM (inactive) | > 100 µM (inactive) | > 100 µM (inactive) | > 100 µM (inactive) | > 100 µM (inactive) | > 100 µM (inactive) | > 100 µM (inactive) | > 100 µM (inactive) | > 100 µM (inactive) | > 100 µM (inactive) | – | – |
| COc1ccc(/N=C2\C(=N/c3ccc(OC)cc3)N(S(=O)(=O)c3ccccc3)C(=S)N2c2ccccc2)cc1 | > 100 µM (inactive) | > 100 µM (inactive) | > 100 µM (inactive) | > 100 µM (inactive) | > 100 µM (inactive) | – | > 100 µM (inactive) | > 100 µM (inactive) | > 100 µM (inactive) | > 100 µM (inactive) | – | > 100 µM (inactive) | > 100 µM (inactive) | > 100 µM (inactive) | > 100 µM (inactive) | > 100 µM (inactive) | > 100 µM (inactive) | > 100 µM (inactive) | > 100 µM (inactive) | > 100 µM (inactive) |
| CCOC(=O)CNC(=O)CNC(=O)CNC(=O)CNNc1c(OCc2ccccc2)c(=O)c1=O | > 100 µM (inactive) | > 100 µM (inactive) | > 100 µM (inactive) | > 100 µM (inactive) | > 100 µM (inactive) | > 100 µM (inactive) | > 100 µM (inactive) | > 100 µM (inactive) | > 100 µM (inactive) | > 100 µM (inactive) | – | > 100 µM (inactive) | > 100 µM (inactive) | > 100 µM (inactive) | > 100 µM (inactive) | > 100 µM (inactive) | > 100 µM (inactive) | > 100 µM (inactive) | > 100 µM (inactive) | > 100 µM (inactive) |
| CN(CCc1ccc(Br)cc1)CCN1CCCCC1 | 21.7 µM (inactive) | 27.2 µM (inactive) | – | 17.3 µM (inactive) | 62.5 µM (inactive) | 54.8 µM (inactive) | 81.1 µM (inactive) | 71.3 µM (inactive) | 22.6 µM (inactive) | 20.4 µM (inactive) | 28.6 µM (inactive) | 33.4 µM (inactive) | 55.8 µM (inactive) | 12.7 µM (inactive) | 36.4 µM (inactive) | 39.5 µM (inactive) | 19.7 µM (inactive) | 26.4 µM (inactive) | 31.8 µM (inactive) | 36.4 µM (inactive) |
| COC1CCON1C(=O)c1ccccc1 (stereo not drawn) | > 10 µM (inactive) | > 10 µM (inactive) | – | > 10 µM (inactive) | > 10 µM (inactive) | > 10 µM (inactive) | > 10 µM (inactive) | > 10 µM (inactive) | > 10 µM (inactive) | > 10 µM (inactive) | > 10 µM (inactive) | > 10 µM (inactive) | > 10 µM (inactive) | > 10 µM (inactive) | > 10 µM (inactive) | – | > 10 µM (inactive) | > 10 µM (inactive) | > 10 µM (inactive) | > 10 µM (inactive) |
| O=c1oc2ccc(Cl)cc2cc1C1=CSC2=NCCN12 | 19.6 µM (inactive) | 21.7 µM (inactive) | 19.5 µM (inactive) | 20.4 µM (inactive) | 37.7 µM (inactive) | 23.6 µM (inactive) | 17.4 µM (inactive) | 27.1 µM (inactive) | 20.8 µM (inactive) | 27.9 µM (inactive) | 18.9 µM (inactive) | – | 38.1 µM (inactive) | 18.8 µM (inactive) | 18.5 µM (inactive) | 23.2 µM (inactive) | 31.7 µM (inactive) | 21.5 µM (inactive) | 17.4 µM (inactive) | 21.3 µM (inactive) |
| O=C1c2cc(-c3ccccc3)cnc2S(=O)(=O)N1c1ccc(Br)cc1 | > 100 µM (inactive) | 34.4 µM (inactive) | 32.8 µM (inactive) | 52.2 µM (inactive) | > 100 µM (inactive) | – | > 100 µM (inactive) | > 100 µM (inactive) | > 100 µM (inactive) | 90.8 µM (inactive) | 41.1 µM (inactive) | > 100 µM (inactive) | 26.2 µM (inactive) | > 100 µM (inactive) | 46.2 µM (inactive) | 30.1 µM (inactive) | 20 µM (inactive) | > 100 µM (inactive) | 16.8 µM (inactive) | – |
| COc1cc(C2SCC(=O)N2c2ccc(-c3ccc(-n4c(-c5ccccc5)nc5ccccc5c4=O)cc3)cc2)ccc1O (stereo not drawn) | 59.4 µM (inactive) | 40.4 µM (inactive) | 21.8 µM (inactive) | > 100 µM (inactive) | > 100 µM (inactive) | 37.9 µM (inactive) | > 100 µM (inactive) | > 100 µM (inactive) | 80 µM (inactive) | > 100 µM (inactive) | 27.2 µM (inactive) | 30.9 µM (inactive) | 16 µM (inactive) | 39.2 µM (inactive) | > 100 µM (inactive) | 44.2 µM (inactive) | 40.1 µM (inactive) | 74.1 µM (inactive) | > 100 µM (inactive) | – |
| CCC(=O)/C(=C\I)c1ccccc1 | 1.67 µM (inactive) | 3.01 µM (inactive) | 2.49 µM (inactive) | 1.75 µM (inactive) | – | – | 2.16 µM (inactive) | 15 µM (inactive) | 2.85 µM (inactive) | 2.7 µM (inactive) | 1.27 µM (inactive) | 23.4 µM (inactive) | 16.6 µM (inactive) | 0.931 µM (active) | 1.97 µM (inactive) | 2.23 µM (inactive) | 5.2 µM (inactive) | 3.36 µM (inactive) | 21 µM (inactive) | 1.52 µM (inactive) |
| Cc1ccc2nc(CN(CCO)CCO)cc(=O)n2c1 | > 100 µM (inactive) | > 100 µM (inactive) | > 100 µM (inactive) | > 100 µM (inactive) | > 100 µM (inactive) | > 100 µM (inactive) | > 100 µM (inactive) | > 100 µM (inactive) | > 100 µM (inactive) | > 100 µM (inactive) | > 100 µM (inactive) | > 100 µM (inactive) | > 100 µM (inactive) | > 100 µM (inactive) | > 100 µM (inactive) | > 100 µM (inactive) | > 100 µM (inactive) | > 100 µM (inactive) | > 100 µM (inactive) | – |
| COc1ccc(OC2OC(CO)C(OCc3ccccc3)C(OCc3ccccc3)C2OCc2ccccc2)cc1 (stereo not drawn) | 25.9 µM (inactive) | 1.48 µM (inactive) | > 100 µM (inactive) | > 100 µM (inactive) | 31.6 µM (inactive) | – | 17.5 µM (inactive) | > 100 µM (inactive) | 76 µM (inactive) | > 100 µM (inactive) | > 100 µM (inactive) | > 100 µM (inactive) | > 100 µM (inactive) | 9.79 µM (inactive) | > 100 µM (inactive) | 25.7 µM (inactive) | 56.9 µM (inactive) | > 100 µM (inactive) | > 100 µM (inactive) | – |
